In article PMC7380166, “How to Study the Metabolism of New Psychoactive Substances for the Purpose of Toxicological Screenings—A Follow-Up Study Comparing Pooled Human Liver S9, HepaRG Cells, and Zebrafish Larvae” (Frontiers in Chemistry, 2020):

What was measured:
monooxygenases = experiment: Monooxygenases activity screening, summary over isozymes; format: in vitro ADME, human; conditions: single-enzyme incubations, 25 μM
Method: According to an established protocol (Wagmann et al., [2016]), the final volume per reaction tube was 50 μl with a final 4F-MDMB-BINACA concentration of 25 μM and enzyme concentrations of 50 pmol/ml for CYP1A2, CYP2A6, CYP2B6, CYP2C8, CYP2C9, CYP2C19, CYP2D6, CYP2E1, CYP3A4, and CYP3A5, respectively, or 0.25 mg protein/ml for FMO3. Furthermore, the reaction mixture contained 90 mM phosphate buffer (pH 7.4), superoxide dismutase (200 U/ml), isocitrate (5 mM), MgCl2 (5 mM), isocitrate dehydrogenase (0.5 U/ml), and NADP^+ (1.2 mM). The phosphate buffer was replaced with Tris buffer (90 mM) for incubations with CYP2A6 and CYP2C9 according to the manufacturer's recommendation. All incubations were performed at 37°C for 30 min and terminated by adding 50 μl of ice-cold acetonitrile. Afterwards, the mixtures were centrifuged at 18,407 × g for 5 min, 70 μl of the supernatants was transferred into autosampler vials, and 1 μl was injected onto the LC-HRMS/MS system. Positive control incubations were performed with pHLM (1 mg microsomal protein/ml), and negative controls without enzyme were prepared to identify non-metabolically formed compounds. All incubations were done in duplicate.

[1] = [2019], cited from earlier work
[2] = Esterases activity screening, pooled human blood plasma; format: in vitro ADME; design: key: +, detected; –, not detected; conditions: 100 μM 4F-MDMB-BINACA, duplicate
Method: (§1) Experiments were performed in accordance with a previous study (Meyer et al., [2015]) with minor modifications. The final volume per reaction tube was 100 μl with a final 4F-MDMB-BINACA concentration of 100 μM and enzyme concentration of 0.2 mg protein/ml for hCES1b, hCES1c, and hCES2. Incubations with pHLM and pHLS9 (0.2 mg protein/ml, each) were performed in a similar manner. Additionally, incubations with human plasma (50 μl pooled human plasma, 40 μl phosphate buffer, and 10 μl substrate) were performed. The reactions were started by adding the enzyme-containing preparation and terminated with an equal volume of ice-cold acetonitrile containing diazepam-d5 (100 μM) as an internal standard. Only plasma incubations were terminated by addition of a three-fold volume of ice-cold acetonitrile. The reaction mixtures were centrifuged at 18,407 × g for 15 min, and then supernatants were transferred to autosampler vials, and 5 μl was injected onto the LC-HRMS/MS system. Negative control incubations without enzyme were prepared to identify non-metabolically formed compounds. All incubations were done in duplicate.

[3] = Esterases activity screening, pHLM; format: in vitro ADME, human; design: key: +, detected; –: −, not detected; conditions: 100 μM 4F-MDMB-BINACA, 0.2 mg protein/ml, duplicate
Method: as §1

hCES2 = molecular target: T1, hCES2 (Homo sapiens, UniProt O00748); experiment: Esterases activity screening, hCES2; format: in vitro ADME; design: key: +, detected; –, not detected; conditions: 100 μM 4F-MDMB-BINACA, 0.2 mg protein/ml, duplicate
T1 construct: purchased Corning
T1 sequence (O00748 27-559): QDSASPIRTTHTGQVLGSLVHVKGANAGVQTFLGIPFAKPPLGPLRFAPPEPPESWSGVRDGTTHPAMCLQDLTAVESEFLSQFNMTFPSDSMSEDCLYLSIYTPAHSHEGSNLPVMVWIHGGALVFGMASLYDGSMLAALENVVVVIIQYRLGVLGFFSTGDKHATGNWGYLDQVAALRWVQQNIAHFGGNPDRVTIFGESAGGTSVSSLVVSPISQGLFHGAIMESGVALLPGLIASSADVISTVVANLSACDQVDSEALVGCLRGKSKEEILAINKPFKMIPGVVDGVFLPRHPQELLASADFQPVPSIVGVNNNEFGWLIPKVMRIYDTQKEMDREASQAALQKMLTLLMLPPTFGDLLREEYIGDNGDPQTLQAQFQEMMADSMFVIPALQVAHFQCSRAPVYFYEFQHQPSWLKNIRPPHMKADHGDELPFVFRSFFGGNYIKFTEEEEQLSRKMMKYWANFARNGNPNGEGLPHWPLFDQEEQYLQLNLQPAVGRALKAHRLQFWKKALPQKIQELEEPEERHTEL
Method: as §1

[4] = Esterases activity screening, pHLS9; format: in vitro ADME, human; design: key: +, detected; –: −, not detected; conditions: 100 μM 4F-MDMB-BINACA, 0.2 mg protein/ml, duplicate
Method: as §1

hCES1c = molecular target: T2, hCES1c (Homo sapiens, UniProt P23141); experiment: Esterases activity screening, hCES1c; format: in vitro ADME; design: key: +, detected; –: −, not detected; conditions: 100 μM 4F-MDMB-BINACA, 0.2 mg protein/ml, duplicate
T2 construct: purchased Corning
T2 sequence (P23141 18-566 isoform P23141-3 limits assumed): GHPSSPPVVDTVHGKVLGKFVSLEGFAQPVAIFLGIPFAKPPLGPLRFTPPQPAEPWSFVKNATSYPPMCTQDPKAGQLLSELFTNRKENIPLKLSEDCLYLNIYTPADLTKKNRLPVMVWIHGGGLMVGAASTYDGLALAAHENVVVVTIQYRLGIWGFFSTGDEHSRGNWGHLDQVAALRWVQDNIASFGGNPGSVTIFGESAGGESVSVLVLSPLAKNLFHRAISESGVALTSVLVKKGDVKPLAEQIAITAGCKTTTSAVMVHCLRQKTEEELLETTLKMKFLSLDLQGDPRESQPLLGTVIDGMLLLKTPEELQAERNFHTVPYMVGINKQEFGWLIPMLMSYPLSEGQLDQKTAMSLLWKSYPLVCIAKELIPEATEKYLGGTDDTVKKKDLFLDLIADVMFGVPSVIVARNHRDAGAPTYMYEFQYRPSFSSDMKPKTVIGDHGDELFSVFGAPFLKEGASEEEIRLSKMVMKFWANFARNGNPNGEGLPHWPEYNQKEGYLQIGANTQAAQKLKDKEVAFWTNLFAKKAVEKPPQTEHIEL
Method: as §1

| Structure (SMILES) | Monooxygenases involved in the metabolic phase I reactions (monooxygenases) | Number of metabolites identified in human urine samples ([1]; 17 human urine samples, conjugate cleavage, ref Haschimi et al.) | Number of metabolites identified in blood and urine samples ([1]; four blood and four urine samples, ref Krotulski et al.) | Detection of metabolite in incubation with pHBP [2] | Detection of metabolite in incubation with pHLM [3] | Detection of metabolite in incubation with hCES2 (hCES2) | Detection of metabolite in incubation with pHLS9 [4] | Detection of metabolite in incubation with hCES1c (hCES1c) |
| --- | --- | --- | --- | --- | --- | --- | --- | --- |
| COC(=O)C(NC(=O)c1nn(CCCCF)c2ccccc12)C(C)(C)C (stereo not shown) [4F-MDMB-BINACA, methyl 2-[1-(4-fluorobutyl)-1H-indazole-3-carbonyl]amino-3,3-dimethylbutanoate] | CYP1A2, CYP2C8, CYP2C19, CYP3A4, and CYP3A5 | 13 | nine |  |  |  |  |  |
| O=C(O)c1nn(CCCCF)c2ccccc12 [MB1] |  |  |  | – | + | – | + | + |
| CC(C)(C)C(NC(=O)c1nn(CCCCF)c2ccccc12)C(=O)O (stereo not shown) [MB8] |  |  |  | – | + | – | + | + |
